The text below walks through data of patent US9340590B2 (priority 2011, dated 2016).

The structures appear in SMILES notation. Positions of bridges follow the written chain, without caps; N, C: chain ends. Non-standard residues stand in square brackets, D forms with d. Residues, ends and D or L forms follow the SMILES beside them. Nva = CCC[C@H](N)C(=O)O; Abu = CC[C@H](N)C(=O)O

What all share (assay): cell-based
One assay has as its target hNav1.3 (Homo sapiens, UniProt Q9NY46). The following applies: IonWorks Quattro, use-dependent protocol, hNav1.3; read-out: IWQ Use Nav1.3.
In a further assay the target is hNav1.7 (Homo sapiens, UniProt Q15858). The assay is classed as cell-based. The settings on record: IonWorks Quattro, use-dependent protocol, hNav1.7; read-out: IWQ Use Nav1.7.
The target in another assay is hNav1.5 (Homo sapiens, UniProt Q14524). The settings on record: IonWorks Quattro, use-dependent protocol, hNav1.5; read-out: IWQ Use Nav1.5.
Chain of hNav1.5 (Q14524 whole entry, looked up): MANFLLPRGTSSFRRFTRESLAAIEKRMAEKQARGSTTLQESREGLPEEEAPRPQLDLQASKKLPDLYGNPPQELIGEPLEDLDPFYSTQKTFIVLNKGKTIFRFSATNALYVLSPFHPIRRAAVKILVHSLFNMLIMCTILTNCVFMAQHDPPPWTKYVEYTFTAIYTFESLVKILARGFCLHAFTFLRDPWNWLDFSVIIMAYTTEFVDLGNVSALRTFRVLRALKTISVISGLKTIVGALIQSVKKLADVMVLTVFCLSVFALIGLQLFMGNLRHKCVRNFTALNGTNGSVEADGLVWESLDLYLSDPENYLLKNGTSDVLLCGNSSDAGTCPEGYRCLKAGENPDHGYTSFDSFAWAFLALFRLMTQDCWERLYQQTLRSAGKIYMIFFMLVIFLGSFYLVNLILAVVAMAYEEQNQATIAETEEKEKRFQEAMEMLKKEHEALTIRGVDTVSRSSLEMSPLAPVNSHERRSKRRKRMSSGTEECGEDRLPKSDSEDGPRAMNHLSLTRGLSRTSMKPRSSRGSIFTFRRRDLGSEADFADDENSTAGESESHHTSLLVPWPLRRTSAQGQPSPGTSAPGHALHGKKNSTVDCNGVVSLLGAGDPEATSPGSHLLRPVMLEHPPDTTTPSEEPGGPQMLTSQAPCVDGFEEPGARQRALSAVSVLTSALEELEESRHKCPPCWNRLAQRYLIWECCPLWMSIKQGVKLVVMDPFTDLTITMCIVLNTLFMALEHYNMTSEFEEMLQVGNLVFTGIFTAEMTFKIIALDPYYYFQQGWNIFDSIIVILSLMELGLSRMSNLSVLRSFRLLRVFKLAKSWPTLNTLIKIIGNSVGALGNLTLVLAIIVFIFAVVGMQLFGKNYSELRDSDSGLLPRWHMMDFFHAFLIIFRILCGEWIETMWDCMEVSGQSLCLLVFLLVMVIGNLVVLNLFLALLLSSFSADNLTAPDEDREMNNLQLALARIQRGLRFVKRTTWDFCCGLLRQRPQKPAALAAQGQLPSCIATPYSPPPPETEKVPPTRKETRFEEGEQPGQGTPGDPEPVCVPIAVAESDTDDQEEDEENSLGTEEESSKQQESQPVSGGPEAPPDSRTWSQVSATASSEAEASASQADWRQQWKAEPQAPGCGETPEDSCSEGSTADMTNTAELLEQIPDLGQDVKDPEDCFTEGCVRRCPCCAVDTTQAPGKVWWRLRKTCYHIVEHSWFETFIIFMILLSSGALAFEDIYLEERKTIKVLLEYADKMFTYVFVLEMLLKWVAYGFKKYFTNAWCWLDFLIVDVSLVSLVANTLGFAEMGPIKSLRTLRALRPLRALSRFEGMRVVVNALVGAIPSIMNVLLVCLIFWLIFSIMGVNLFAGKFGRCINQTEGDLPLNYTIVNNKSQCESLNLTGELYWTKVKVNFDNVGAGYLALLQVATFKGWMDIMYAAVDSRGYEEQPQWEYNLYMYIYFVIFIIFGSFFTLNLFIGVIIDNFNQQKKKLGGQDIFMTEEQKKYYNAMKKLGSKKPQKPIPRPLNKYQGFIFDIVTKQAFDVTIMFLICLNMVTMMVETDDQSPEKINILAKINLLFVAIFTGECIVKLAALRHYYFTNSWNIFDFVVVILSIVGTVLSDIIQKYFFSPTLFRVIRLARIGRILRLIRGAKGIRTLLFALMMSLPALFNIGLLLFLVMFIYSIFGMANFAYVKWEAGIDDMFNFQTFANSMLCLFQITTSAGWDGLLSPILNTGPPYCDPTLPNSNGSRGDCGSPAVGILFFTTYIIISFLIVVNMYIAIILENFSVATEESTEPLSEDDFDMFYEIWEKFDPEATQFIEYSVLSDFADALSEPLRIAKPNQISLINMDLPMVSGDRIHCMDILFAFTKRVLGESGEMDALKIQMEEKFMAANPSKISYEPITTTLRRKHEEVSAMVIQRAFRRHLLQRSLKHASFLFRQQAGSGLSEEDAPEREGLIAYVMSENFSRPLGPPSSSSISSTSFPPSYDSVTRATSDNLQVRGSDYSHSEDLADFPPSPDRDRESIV

Chain of hNav1.3 (Q9NY46 whole entry, looked up): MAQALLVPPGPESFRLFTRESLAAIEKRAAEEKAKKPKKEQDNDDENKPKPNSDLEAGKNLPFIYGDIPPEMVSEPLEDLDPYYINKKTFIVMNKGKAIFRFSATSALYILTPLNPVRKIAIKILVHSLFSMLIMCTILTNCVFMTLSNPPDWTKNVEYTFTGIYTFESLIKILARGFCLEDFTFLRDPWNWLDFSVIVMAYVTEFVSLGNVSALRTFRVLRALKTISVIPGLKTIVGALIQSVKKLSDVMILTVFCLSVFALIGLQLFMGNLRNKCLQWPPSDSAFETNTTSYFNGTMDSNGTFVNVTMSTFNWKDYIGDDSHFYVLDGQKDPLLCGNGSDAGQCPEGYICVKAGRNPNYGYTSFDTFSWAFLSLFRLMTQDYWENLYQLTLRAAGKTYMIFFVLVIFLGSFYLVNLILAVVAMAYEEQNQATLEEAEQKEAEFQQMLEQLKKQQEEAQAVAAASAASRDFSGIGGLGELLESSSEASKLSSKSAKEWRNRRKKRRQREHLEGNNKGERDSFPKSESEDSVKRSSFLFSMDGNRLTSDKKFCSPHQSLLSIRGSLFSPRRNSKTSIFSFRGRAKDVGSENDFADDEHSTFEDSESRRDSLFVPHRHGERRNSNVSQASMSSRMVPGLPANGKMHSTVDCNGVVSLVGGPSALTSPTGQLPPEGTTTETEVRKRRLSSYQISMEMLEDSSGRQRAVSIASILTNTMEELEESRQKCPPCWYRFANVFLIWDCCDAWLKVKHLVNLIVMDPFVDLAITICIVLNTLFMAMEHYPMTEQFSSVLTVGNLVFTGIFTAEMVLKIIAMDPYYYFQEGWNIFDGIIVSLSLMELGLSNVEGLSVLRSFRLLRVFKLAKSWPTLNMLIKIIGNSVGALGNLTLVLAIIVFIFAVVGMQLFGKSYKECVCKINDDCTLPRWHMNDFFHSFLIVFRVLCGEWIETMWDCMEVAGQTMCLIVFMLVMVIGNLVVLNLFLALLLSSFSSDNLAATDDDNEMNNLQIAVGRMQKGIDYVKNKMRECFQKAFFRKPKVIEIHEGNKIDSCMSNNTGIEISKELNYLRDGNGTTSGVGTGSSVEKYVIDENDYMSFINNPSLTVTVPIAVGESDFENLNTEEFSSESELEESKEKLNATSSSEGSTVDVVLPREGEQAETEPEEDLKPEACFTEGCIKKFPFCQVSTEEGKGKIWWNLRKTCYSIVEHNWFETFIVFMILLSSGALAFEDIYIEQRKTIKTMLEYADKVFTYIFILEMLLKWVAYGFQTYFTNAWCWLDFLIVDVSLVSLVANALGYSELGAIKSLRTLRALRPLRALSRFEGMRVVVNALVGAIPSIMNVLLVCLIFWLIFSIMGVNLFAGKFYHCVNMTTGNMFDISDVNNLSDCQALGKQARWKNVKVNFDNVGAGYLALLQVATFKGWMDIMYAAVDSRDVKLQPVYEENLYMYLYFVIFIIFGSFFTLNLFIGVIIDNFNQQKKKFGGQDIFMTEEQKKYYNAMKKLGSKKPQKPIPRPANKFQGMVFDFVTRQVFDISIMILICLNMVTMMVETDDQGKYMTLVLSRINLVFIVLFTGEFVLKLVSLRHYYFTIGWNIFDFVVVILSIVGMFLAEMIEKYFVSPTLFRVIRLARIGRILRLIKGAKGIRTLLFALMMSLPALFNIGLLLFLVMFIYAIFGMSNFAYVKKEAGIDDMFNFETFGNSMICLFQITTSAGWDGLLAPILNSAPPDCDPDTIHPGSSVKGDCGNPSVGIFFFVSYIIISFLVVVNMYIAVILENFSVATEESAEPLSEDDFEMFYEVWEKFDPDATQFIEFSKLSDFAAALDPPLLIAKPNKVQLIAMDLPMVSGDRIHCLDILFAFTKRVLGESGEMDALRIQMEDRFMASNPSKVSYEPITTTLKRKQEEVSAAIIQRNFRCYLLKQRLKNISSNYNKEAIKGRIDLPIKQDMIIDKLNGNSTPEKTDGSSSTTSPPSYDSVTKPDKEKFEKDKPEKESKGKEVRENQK

Regarding `CCC[C@@H]1NC(=O)CNC(=O)[C@H](CC(C)C)NC(=O)[C@@H](NC(=O)[C@@H](N)CC(=O)O)CSSC[C@@H]2NC(=O)[C@@H]3CSSC[C@@H](C(=O)N[C@@H](CCCCN)C(=O)N[C@@H](Cc4ccc(O)cc4)C(=O)N[C@H](C(=O)N[C@@H](Cc4ccccc4)C(N)=O)C(C)C)NC(=O)[C@H](Cc4c[nH]c5ccccc45)NC(=O)[C@H](CCC(=O)O)NC(=O)[C@H](Cc4c[nH]cn4)NC(=O)[C@H]([C@@H](C)O)NC(=O)[C@H](CCCNC(=N)N)NC(=O)[C@H](CO)NC(=O)[C@H](CSSC[C@H](NC(=O)[C@H](CCCCN)NC(=O)[C@H](CCCNC(=N)N)NC(=O)[C@H](CCSC)NC1=O)C(=O)N[C@@H]([C@@H](C)CC)C(=O)N1CCC[C@H]1C(=O)N[C@@H](CC(=O)O)C(=O)N[C@@H](CC(N)=O)C(=O)N[C@@H](CC(=O)O)C(=O)N[C@@H](CCCCN)C(=O)N3)NC(=O)[C@H](C(C)C)NC(=O)[C@H](CC(C)C)NC(=O)[C@H](CC(N)=O)NC(=O)[C@@H]1CCCN1C(=O)[C@H](CCCNC(=N)N)NC2=O` [compound 705] (H-DCLG[Nva]MRKCIPDNDKCCRPNLVCSRTHEWCKYVF-NH2; disulfide 2-17, 9-23, 16-30), the IC50 on hNav1.3 was 3.4 µM; at hNav1.7, 0.43 µM; at hNav1.5 it was 33 µM.

For `CC[C@@H]1NC(=O)CNC(=O)[C@H](CC(C)C)NC(=O)[C@@H](NC(=O)[C@@H](N)CC(=O)O)CSSC[C@@H]2NC(=O)[C@@H]3CSSC[C@@H](C(=O)N[C@@H](CCCCN)C(=O)N[C@@H](Cc4ccc(O)cc4)C(=O)N[C@H](C(=O)N[C@@H](Cc4ccccc4)C(N)=O)C(C)C)NC(=O)[C@H](Cc4c[nH]c5ccccc45)NC(=O)[C@H](CCC(=O)O)NC(=O)[C@H](Cc4c[nH]cn4)NC(=O)[C@H]([C@@H](C)O)NC(=O)[C@H](CCCNC(=N)N)NC(=O)[C@H](CO)NC(=O)[C@H](CSSC[C@H](NC(=O)[C@H](CCCCN)NC(=O)[C@H](CCCNC(=N)N)NC(=O)[C@H](CCSC)NC1=O)C(=O)N[C@@H]([C@@H](C)CC)C(=O)N1CCC[C@H]1C(=O)N[C@@H](CC(=O)O)C(=O)N[C@@H](CC(N)=O)C(=O)N[C@@H](CC(=O)O)C(=O)N[C@@H](CCCCN)C(=O)N3)NC(=O)[C@H](C(C)C)NC(=O)[C@H](CC(C)C)NC(=O)[C@H](CC(N)=O)NC(=O)[C@@H]1CCCN1C(=O)[C@H](CCCNC(=N)N)NC2=O` [compound 706] (H-DCLG[Abu]MRKCIPDNDKCCRPNLVCSRTHEWCKYVF-NH2; disulfide 2-17, 9-23, 16-30), the figures for the IC50 on hNav1.3, on hNav1.7 and at hNav1.5 were above 5 µM, 1.4 µM and above 50 µM, respectively.

For the compound `CC[C@@H]1NC(=O)CNC(=O)[C@H](CC(C)C)NC(=O)[C@@H](NC(=O)[C@@H](N)CC(=O)O)CSSC[C@@H]2NC(=O)[C@@H]3CSSC[C@@H](C(=O)N[C@@H](CCCCN)C(=O)N[C@@H](Cc4ccc(O)cc4)C(=O)N[C@H](C(=O)N[C@@H](Cc4ccccc4)C(N)=O)C(C)C)NC(=O)[C@H](Cc4c[nH]c5ccccc45)NC(=O)[C@H](CCC(=O)O)NC(=O)[C@H](Cc4c[nH]cn4)NC(=O)[C@H]([C@@H](C)O)NC(=O)[C@H](CCCNC(=N)N)NC(=O)[C@H](CO)NC(=O)[C@H](CSSC[C@H](NC(=O)[C@H](CCCCN)NC(=O)[C@H](CCCNC(=N)N)NC(=O)[C@H](CC(C)C)NC1=O)C(=O)N[C@@H]([C@@H](C)CC)C(=O)N1CCC[C@H]1C(=O)N[C@@H](CC(=O)O)C(=O)N[C@@H](CC(N)=O)C(=O)N[C@@H](CC(=O)O)C(=O)N[C@@H](CCCCN)C(=O)N3)NC(=O)[C@H](C(C)C)NC(=O)[C@H](CC(C)C)NC(=O)[C@H](CC(N)=O)NC(=O)[C@@H]1CCCN1C(=O)[C@H](CCCNC(=N)N)NC2=O` [compound 707] (H-DCLG[Abu]LRKCIPDNDKCCRPNLVCSRTHEWCKYVF-NH2; disulfide 2-17, 9-23, 16-30), the IC50 was above 5 µM at hNav1.3, 1.2 µM at hNav1.7 and 6 µM at hNav1.5.

Take `CCC[C@@H]1NC(=O)CNC(=O)[C@H](CC(C)C)NC(=O)[C@@H](NC(=O)[C@@H](N)CC(=O)O)CSSC[C@@H]2NC(=O)[C@@H]3CSSC[C@@H](C(=O)N[C@@H](CCCCN)C(=O)N[C@@H](Cc4ccc(O)cc4)C(=O)N[C@H](C(=O)N[C@@H](Cc4ccccc4)C(N)=O)C(C)C)NC(=O)[C@H](Cc4c[nH]c5ccccc45)NC(=O)[C@H](CCC(=O)O)NC(=O)[C@H](Cc4c[nH]cn4)NC(=O)[C@H]([C@@H](C)O)NC(=O)[C@H](CCCNC(=N)N)NC(=O)[C@H](CO)NC(=O)[C@H](CSSC[C@H](NC(=O)[C@H](CCCCN)NC(=O)[C@H](CCCNC(=N)N)NC(=O)[C@H](CC(C)C)NC1=O)C(=O)N[C@@H]([C@@H](C)CC)C(=O)N1CCC[C@H]1C(=O)N[C@@H](CC(=O)O)C(=O)N[C@@H](CC(N)=O)C(=O)N[C@@H](CC(=O)O)C(=O)N[C@@H](CCCCN)C(=O)N3)NC(=O)[C@H](C(C)C)NC(=O)[C@H](CC(C)C)NC(=O)[C@H](CC(N)=O)NC(=O)[C@@H]1CCCN1C(=O)[C@H](CCCNC(=N)N)NC2=O` [compound 708] (H-DCLG[Nva]LRKCIPDNDKCCRPNLVCSRTHEWCKYVF-NH2; disulfide 2-17, 9-23, 16-30): the IC50 on hNav1.3 amounted to 2.8 µM; on hNav1.7 it was 0.37 µM; on hNav1.5, 31 µM.

With `CC[C@H](C)[C@@H]1NC(=O)[C@@H]2CSSC[C@@H]3NC(=O)[C@H](C(C)C)NC(=O)[C@H](CC(C)C)NC(=O)[C@H](CC(N)=O)NC(=O)[C@@H]4CCCN4C(=O)[C@H](CCCNC(=N)N)NC(=O)[C@H](CSSC[C@H](NC(=O)[C@@H](N)CC(=O)O)C(=O)N[C@@H](CC(C)C)C(=O)NCC(=O)N[C@@H](C(C)C)C(=O)N[C@@H](CC(C)C)C(=O)N[C@@H](CCCNC(=N)N)C(=O)N[C@@H](CCCCN)C(=O)N2)NC(=O)[C@H](CSSC[C@@H](C(=O)N[C@@H](CCCCN)C(=O)N[C@@H](Cc2ccc(O)cc2)C(=O)N[C@H](C(=O)N[C@@H](Cc2ccccc2)C(N)=O)C(C)C)NC(=O)[C@H](Cc2c[nH]c4ccccc24)NC(=O)[C@H](CCC(=O)O)NC(=O)[C@H](Cc2c[nH]cn2)NC(=O)[C@H]([C@@H](C)O)NC(=O)[C@H](CCCNC(=N)N)NC(=O)[C@H](CO)NC3=O)NC(=O)[C@H](CCCCN)NC(=O)[C@H](CC(=O)O)NC(=O)[C@H](CC(N)=O)NC(=O)[C@H](CC(=O)O)NC(=O)[C@@H]2CCCN2C1=O` [compound 709] (H-DCLGVLRKCIPDNDKCCRPNLVCSRTHEWCKYVF-NH2; disulfide 2-17, 9-23, 16-30), the IC50 at hNav1.3 came to 4.8 µM; at hNav1.7, 0.74 µM; at hNav1.5, 43 µM.

Turning to `CSCC[C@@H]1NC(=O)[C@H](C(C)C)NC(=O)CNC(=O)[C@H](CC(C)C)NC(=O)[C@@H](NC(=O)[C@@H](N)CC(=O)O)CSSC[C@@H]2NC(=O)[C@@H]3CSSC[C@@H](C(=O)N[C@@H](CCCCN)C(=O)N[C@@H](Cc4ccc(O)cc4)C(=O)N[C@H](C(=O)N[C@@H](Cc4ccccc4)C(N)=O)C(C)C)NC(=O)[C@H](Cc4c[nH]c5ccccc45)NC(=O)[C@H](CCCCN)NC(=O)[C@H](Cc4c[nH]cn4)NC(=O)[C@H]([C@@H](C)O)NC(=O)[C@H](CCCNC(=N)N)NC(=O)[C@H](CO)NC(=O)[C@H](CSSC[C@H](NC(=O)[C@H](CCCCN)NC(=O)[C@H](CCCNC(=N)N)NC1=O)C(=O)N[C@@H](CC(=O)O)C(=O)N1CCC[C@H]1C(=O)N[C@@H](CC(=O)O)C(=O)N[C@@H](CC(N)=O)C(=O)N[C@@H](CC(=O)O)C(=O)N[C@@H](CCCCN)C(=O)N3)NC(=O)[C@H](C(C)C)NC(=O)[C@H](CC(C)C)NC(=O)[C@H](CC(N)=O)NC(=O)[C@@H]1CCCN1C(=O)[C@H](CCCNC(=N)N)NC2=O` [compound 710] (H-DCLGVMRKCDPDNDKCCRPNLVCSRTHKWCKYVF-NH2; disulfide 2-17, 9-23, 16-30), the IC50 on hNav1.3 was 1.3 µM; on hNav1.7, 0.69 µM; on hNav1.5 it was 35 µM.

In the case of `CC[C@H](C)[C@@H]1NC(=O)[C@@H]2CSSC[C@@H]3NC(=O)[C@H](C(C)C)NC(=O)[C@H](CC(C)C)NC(=O)[C@H](CC(N)=O)NC(=O)[C@@H]4CCCN4C(=O)[C@H](CCCNC(=N)N)NC(=O)[C@H](CSSC[C@H](NC(=O)[C@@H](N)CC(=O)O)C(=O)N[C@@H](CC(C)C)C(=O)NCC(=O)N[C@@H](C(C)C)C(=O)N[C@@H](CCSC)C(=O)N[C@@H](CCCNC(=N)N)C(=O)N[C@@H](CCCCN)C(=O)N2)NC(=O)[C@H](CSSC[C@@H](C(=O)N[C@@H](CCCCN)C(=O)N[C@@H](Cc2ccc(O)cc2)C(=O)N[C@H](C(=O)N[C@@H](Cc2ccccc2)C(N)=O)C(C)C)NC(=O)[C@H](Cc2c[nH]c4ccccc24)NC(=O)[C@H](CCCCN)NC(=O)[C@H](Cc2c[nH]cn2)NC(=O)[C@H]([C@@H](C)O)NC(=O)[C@H](CCCNC(=N)N)NC(=O)[C@H](CO)NC3=O)NC(=O)[C@H](CCCCN)NC(=O)[C@H](CC(=O)O)NC(=O)[C@H](CC(N)=O)NC(=O)[C@H](CCC(=O)O)NC(=O)[C@@H]2CCCN2C1=O` [compound 711] (H-DCLGVMRKCIPENDKCCRPNLVCSRTHKWCKYVF-NH2; disulfide 2-17, 9-23, 16-30), the IC50 at hNav1.3 came to 0.75 µM; at hNav1.7 it was 0.48 µM; on hNav1.5, 26 µM.

As for `CSCC[C@@H]1NC(=O)[C@H](C(C)C)NC(=O)CNC(=O)[C@H](CC(C)C)NC(=O)[C@@H](NC(=O)[C@@H](N)CC(=O)O)CSSC[C@@H]2NC(=O)[C@@H]3CSSC[C@@H](C(=O)N[C@@H](CCCCN)C(=O)N[C@@H](Cc4ccc(O)cc4)C(=O)N[C@H](C(=O)N[C@@H](Cc4ccccc4)C(N)=O)C(C)C)NC(=O)[C@H](Cc4c[nH]c5ccccc45)NC(=O)[C@H](CCCCN)NC(=O)[C@H](Cc4c[nH]cn4)NC(=O)[C@H]([C@@H](C)O)NC(=O)[C@H](CCCNC(=N)N)NC(=O)[C@H](CO)NC(=O)[C@H](CSSC[C@H](NC(=O)[C@H](CCCCN)NC(=O)[C@H](CCCNC(=N)N)NC1=O)C(=O)N[C@@H](CC(=O)O)C(=O)N1CCC[C@H]1C(=O)N[C@@H](CCC(=O)O)C(=O)N[C@@H](CC(N)=O)C(=O)N[C@@H](CC(=O)O)C(=O)N[C@@H](CCCCN)C(=O)N3)NC(=O)[C@H](C(C)C)NC(=O)[C@H](CC(C)C)NC(=O)[C@H](CC(N)=O)NC(=O)[C@@H]1CCCN1C(=O)[C@H](CCCNC(=N)N)NC2=O` [compound 712] (H-DCLGVMRKCDPENDKCCRPNLVCSRTHKWCKYVF-NH2; disulfide 2-17, 9-23, 16-30), the IC50 worked out at 1.7 µM on hNav1.3, 0.46 µM on hNav1.7 and 34 µM at hNav1.5.
